Measurements from US20220304970A1, “LIPOSOMIAL EYE DROPS SOLUTION AND USES THEREOF FOR THE TREATMENT OF DRY EYE SYNDROME” (Dr. Rolf Lambert Pharma-Consulting GmbH, priority 2018, published 2022).

Test: Stability to steam sterilization
Details: 121° C. at 1·10^5 Pa (1 atm) for 15 minutes

For CCCCCCCCCCCCCCCC(=O)OC/C=C(C)/C=C/C=C(C)/C=C/C1=C(C)CCCC1(C)C [Vitamin A Palmitate, Retinyl Palmitate], the stability to sterilization was “not stable”.
